The nature of one series: clinical. The conditions noted are these: human, in vivo, po, Tmax median treatment difference.
Series [1] can be described thus: Post-hoc analysis of pooled data of 343 patients: clearance by hepatic function. The conditions noted are these: pooled data of 343 patients (284 normal, 53 mild HI, 6 moderate HI). It counts as in vivo, human. From the text:
As per the current avapritinib labeling, no dose adjustment is recommended for patients with mild or moderate HI.

Series [2] can be described thus: Clinical study BLU-285-0107: single 100 mg oral dose, severe hepatic impairment vs matched control subjects, plasma PK.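 For all read-outs here: severe hepatic impairment meant chronic stable cirrhosis with a Child-Pugh score of 10–15, and each such subject was paired one-to-one with a control of similar age, BMI and sex.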 The conditions noted are these: single oral 100 mg; for CL/F GeoMean / AUC(0-t) / AUC(0-inf) / Cmax / Tmax / Vd/F / half-life: total plasma avapritinib; for CLu/F GeoMean / Cumax GeoMean / AUC: unbound plasma avapritinib; for AUC(0-t) / AUC(0-inf) / AUC / Cmax / Tmax / Vd/F / half-life: human, plasma, po, 100 mg; for AUC(0-inf): AUC0-∞ GeoMean; for Cmax: Cmax GeoMean; for Tmax: Tmax median; for Vd/F: Vz/F GeoMean; for half-life: t1/2 arithmetic mean.
Description: Subjects with chronic, stable, severe HI with features of cirrhosis due to any etiology were enrolled, and the Child-Pugh scale was used to classify the severity of liver disease. The scale employs 5 clinical measures of liver disease. Each measure is scored 1 to 3, with 3 indicating most severe derangement. Subjects' scores of 10 to 15 on this scale are classified as having severe hepatic impairment.
The control subjects were matched in a 1:1 ratio to subjects with severe hepatic impairment for age, body mass index (BMI), and sex variables.

For series [3] the following is noted: cited from earlier work.
The conditions of series [4]: patients with severe hepatic impairment; cited from earlier work.

The structures appear in SMILES notation. Like-named read-outs stand apart in the source and are kept apart here.

One may read the Tmax as the time from dosing to the highest level. `Cn1cc(-c2cc3c(N4CCN(c5ncc([C@@](C)(O)c6ccc(F)cc6)cn5)CC4)ncnn3c2)cn1` [Metabolite B]: in “clinical”, the Tmax came to 80 h.
On the same count and under the same terms, the value for `Cn1cc(-c2cc3c(N4CCN(c5ncc([C@](C)(O)c6ccc(F)cc6)cn5)CC4)ncnn3c2)cn1` [Metabolite A] was 14.1 h.
What is called AUC(0-t) is the area under the concentration-time curve up to a stated or last time point. A higher AUC(0-t) goes with high exposure. One may read the AUC(0-inf) as total exposure, with the tail of the curve extrapolated. Higher therefore signals high exposure. In general, AUC refers to the area under the concentration-time curve, a measure of exposure. Read a low AUC as low exposure. One may read the Cmax as the peak of the concentration-time curve. One may read the Vd/F as the volume of distribution divided by bioavailability. A word on the half-life: it is how long it takes for the measured level to halve. Read a high half-life as slow loss. Consider `Cn1cc(-c2cc3c(N4CCN(c5ncc([C@@](C)(N)c6ccc(F)cc6)cn5)CC4)ncnn3c2)cn1` [Avapritinib, (S)-1-(4-fluorophenyl)-1-(2-(4-(6-(1-methyl-1H-pyrazol-4-yl)pyrrolo [2,1-f][1,2,4]triazin-4-yl)piperazin-yl)pyrimidin-5-yl)ethan-1-amine], for which the “clearance between patients with normal liver function, mild HI and moderate HI” value in series [1] is reported as “similar”. The “CL/F GeoMean” value stood at 15.21 L/h in series [2] (Matched Control) and 12.72 L/h in series [2] (Severe HI). In addition, the “CLu/F GeoMean” value came to 1534 L/h in series [2] (Matched Control) and 950.6 L/h in series [2] (Severe HI). Moreover, the “Cumax GeoMean” value in series [2] (Matched Control) is on record as 1.197 ng/mL; in series [2] (Severe HI), 1.293 ng/mL. For the same compound, the AUC(0-t) in series [2] (AUC0-24 GeoMean, Matched Control) was 1610 ng·h/mL; in series [2] (AUC0-24 GeoMean, Severe HI), 1370 ng·h/mL; in series [2] (AUC0-240 GeoMean, Matched Control), 6030 ng·h/mL; in series [2] (AUC0-240 GeoMean, Severe HI), 6500 ng·h/mL. Besides, the AUC(0-inf) in series [2] (Matched Control) is 6570 ng·h/mL; in series [2] (Severe HI), 7860 ng·h/mL. The AUC in series [2] (AUCu0-24 GeoMean, Matched Control) is 15.9 ng·h/mL; in series [2] (AUCu0-24 GeoMean, Severe HI), 18.3 ng·h/mL; in series [2] (AUCu0-240 GeoMean, Matched Control) it was 59.8 ng·h/mL; in series [2] (AUCu0-240 GeoMean, Severe HI), 87 ng·h/mL; in series [2] (AUCu0-∞ GeoMean, Matched Control) it was 65.2 ng·h/mL; in series [2] (AUCu0-∞ GeoMean, Severe HI) it was 105 ng·h/mL. Also, the results for the Cmax in series [2] (Matched Control) and in series [2] (Severe HI) were 121 ng/mL and 96.6 ng/mL, respectively. Further, the Tmax in series [2] (Matched Control) was 2.25 h; in series [2] (Severe HI), 1.5 h. In addition, the Vd/F came to 1330 L in series [2] (Matched Control) and 1710 L in series [2] (Severe HI). Moreover, the half-life is 64.1 h in series [2] (Matched Control) and 96.6 h in series [2] (Severe HI).
In the case of `N#Cc1ccccc1-c1cc(-c2ccccn2)cn(-c2ccccc2)c1=O` [perampanel], the “AUC higher compared to normal” value in series [3] (patients with mild HI) is 50%; in series [3] (patients with moderate HI) it was 2.5 fold.
As to `CCOc1cc2ncc(C#N)c(Nc3ccc(OCc4ccccn4)c(Cl)c3)c2cc1NC(=O)/C=C/CN(C)C` [neratinib], in series [4], the “exposure (AUC) increased” value is given as 181% and the “exposure (Cmax) increased” value was 173%.

The record behind these values is patent US20240382493A1, “METHODS FOR TREATING SYSTEMIC MASTOCYTOSIS AND GASTROINTESTINAL STROMAL TUMORS” (Blueprint Medicines Corporation, priority 2023, published 2024).
